In data set [1] the test system is w794 DNA, 5'-AATTA high affinity site. Nature of the data set: Relative rate of DNA alkylation at the w794 5'-AATTA high affinity site. The format is biochemical, SV40. Conditions: 25° C. The method, then:
Rate of DNA Alkylation. The relative rates of DNA alkylation for the natural enantiommers of CCBI-TMI (35) and CCBI-indole2 (37) versus those of the corresponding CBI and MCBI agents were measured at the single high affinity site in w794, 5'-AATTA. The relative rates earlier studies of DNA alkylation for MCBI-TMI, CBI-TMI, and duocarmycin SA were determined to be quite similar at 4° C., 1.8:1.0:0.9, respectively. […] In prior studies, we have highlighted similar observations with agents that span a much larger range of relative reactivities.
The DNA alkylation selectivity and efficiency of the natural enantiomers of 304-307 were compared with that of 1 in w794 DNA. […] These trends in the overall efficiency of DNA alkylation parallel the relative trends in cytotoxic potency.
(§1) DNA Alkylation Relative Rate of (+)-CCBI-TMI (35), (+)-CBI-TMI, and (+)-MCBI-TMI. Following the procedure detailed above, Eppendorf tubes containing 5' end-labeled w794 DNA (9 μL) in TE buffer (pH 7.5) were treated with (+)-CCBI-TMI (35), (+)-CBI-TMI, or (+)-MCBI-TMI (1 μL, 10^-6 M in DMSO). The solutions were mixed and incubated at 25° C. for 2, 4, 6, 9, 12, 15, and 24 h, respectively. Subsequent isolation of the alkylated DNA by EtOH precipitation, resuspension in TE buffer (10 μL, pH 7.5), thermolysis (30 min, 100° C.), PAGE, and autoradiography were conducted as detailed above. Relative rates for alkylation at the w794 high-affinity 5'-AATTA site were derived from the slopes of the plots of percent integrated optical density (IOD) of the high-affinity alkylation cleavage bands versus time.
as §1, with “(+)-CCBI-indole2 (37), (+)-CBI-indole2,” for “(+)-CCBI-TMI (35), (+)-CBI-TMI,”, “(+)-MCBI-indole2.” for “(+)-MCBI-TMI.”, “(+)-CCBI-indole2 (37), (+)-CBI-indole2, and (+)-MCBI-indole2” for “(+)-CCBI-TMI (35), (+)-CBI-TMI, or (+)-MCBI-TMI”

The conditions of data set [2]: in vivo; cited from earlier work.
The conditions of data set [3]: cited from earlier work.
The conditions of data set [4]: cited from earlier work. The source holds these as a separate data set.
The subject of data set [5] is w794 DNA, 5'-AATTA high affinity site. Nature of the data set: Relative rate of DNA alkylation at the w794 5'-AATTA high affinity site. It counts as biochemical, SV40. The following applies: 10^-5 M, 25° C., 1-72 h.
Data set [6] has as its system w794 duplex DNA. Nature of the data set: DNA alkylation selectivity and efficiency within w794 DNA, thermally-induced strand cleavage and PAGE. It counts as biochemical, SV40. A digest of the protocol: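 5′-32P end-labeled w794 duplex DNA in TE buffer (pH 7.2–7.5) incubated with agent in DMSO across concentrations, 4–37 °C for 24–76 h depending on agent. Unbound agent removed by EtOH precipitation; thermolysis 100 °C, 30 min cleaves alkylation sites, mapped by denaturing 8% PAGE beside Sanger standards and autoradiography.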

Data set [7] is described as follows: In vitro cytotoxic activity (cell line not given). It counts as cell-based.
Data set [8] has as its system w794 duplex DNA. The following applies: unnatural enantiomers; prior comparison; cited from earlier work.
Data set [9] deals with DNA. Conditions: cited from earlier work.
Data set [10] deals with DNA. Conditions: cited from earlier work. The source holds these as a separate data set.
Data set [11] deals with w794 DNA, 5'-AATTA high affinity site. Conditions: 4° C., earlier studies, 1.8:1.0:0.9; cited from earlier work.

As for `O=C(Nc1ccc2[nH]c(C(=O)N3CC4CC45C3=CC(=O)c3ccccc35)cc2c1)c1cc2ccccc2[nH]1` (single isomer, unassigned) [CBI-indole2], in data set [1], the “relative rate of DNA alkylation, indole2 series” value turned out to be 1.0 ×. Besides, in data set [2], the “delayed toxicity” value is recorded as “lacked the delayed fatal toxicity”. Besides, the “cytotoxic potency greater than (+)-CPI-indole2 (U71,184)” value in [3] is listed as 4 ×. Moreover, in data set [4], the “in vivo antitumor activity” value was “potent and efficacious In vivo antitumor activity”.

For the compound `COC(=O)c1cc2c([nH]1)C(=O)C=C1N(C(=O)c3cc4cc(OC)ccc4[nH]3)CC3CC123` (single isomer, unassigned) [compound 305], the “krel, faster than 304” value in data set [5] is recorded as 18-33. In the data set on w794 duplex DNA [6], the “DNA alkylation properties, comparison in words” value is “essentially indistinguishable from 1 itself”. In addition, the “properties relative to duocarmycin SA or 304” value in data set [7] is “indistinguishable”. The “cytotoxic activity relative to duocarmycin SA or 304 (words)” value in data set [7] (listed as (+)-305) is given as “indistinguishable from duocarmycin SA”.

Turning to `COc1c(O)c2c(c3cc(C(=O)N4CCc5c4c(O)c(OC)c4[nH]c(C(=O)N6CC7CC78C6=CC(=O)c6[nH]cc(C)c68)cc54)[nH]c13)CCN2C(N)=O` (single isomer, unassigned) [ent-(-)-CC-1065], the “delayed toxicity” value in [2] is “has not been observed”.

As to `COc1c(O)c2c(c3cc(C(=O)N4CCc5c4c(O)c(OC)c4[nH]c(C(=O)N6CC7CC78C6=CC(=O)c6[nH]cc(C)c68)cc54)[nH]c13)CCN2C(N)=O` (single isomer, unassigned; (+)) [(+)-CC-1065], the “delayed toxicity” value in data set [2] is “delayed fatal toxicity”.

Take `COc1cc2cc(C(=O)N3CC4CC45C3=CC(=O)c3ccccc35)[nH]c2c(OC)c1OC` (single isomer, unassigned; (-)) [(-)-CBI-TMI]: the “distinction in DNA alkylation efficiency from ent-(-)-duocarmycin SA” value in the data set on w794 duplex DNA [8] was 10 ×.

Take `Cc1c(N)nc([C@H](CC(N)=O)NC[C@H](N)C(N)=O)nc1C(=O)N[C@H](C(=O)N[C@H](C)[C@@H](O)[C@H](C)C(=O)N[C@H](C(=O)NCCc1nc(-c2nc(C(=O)NCCC[S+](C)C)cs2)cs1)[C@@H](C)O)[C@@H](O[C@@H]1O[C@@H](CO)[C@@H](O)[C@H](O)[C@@H]1O[C@H]1O[C@H](CO)[C@@H](O)[C@H](OC(N)=O)[C@@H]1O)c1c[nH]cn1.[Br-]` [compound 104]: the “apparent binding site size” value in the data set with DNA [9] was 3.8 base-pairs. Further, the Kd on DNA [9] (dna, read-out: apparent DNA binding constant Kapp) was 10 µM.

With `COC(=O)[C@]1(C)NC2=C(C1=O)[C@@]13C[C@@H]1CN(C(=O)c1cc4cc(OC)c(OC)c(OC)c4[nH]1)C3=CC2=O` [duocarmycin A], the “adenine N3 adduct quantitated” value in the data set with DNA [10] was 86-92%.

In the case of `COC(=O)c1cc2c([nH]1)C(=O)C=C1N(C(=O)c3cc4cc(OC)c(OC)c(OC)c4[nH]3)CC3CC123` (stereo not shown) [duocarmycin SA], in data set [5], the “krel, 1 relative to 305” value was 1.3-2.3 and the “krel, faster than 304” value is reported as 18-33. Moreover, in data set [1] (10^-6 M), the “relative rate of DNA alkylation, TMI series” value was found to be 0.9 ×. For the same compound, the “DNA alkylation properties, comparison in words” value in the data set on w794 duplex DNA [6] is “exhibited the same selectivity and efficiency of DNA alkylation”. Also, in the data set with w794 duplex DNA [6] (25° C., 24 h), the “concentration of detectable alkylation of high affinity site 5'-AATTA” value is given as 10^-6 to 10^-7 M. Also, in data set [7], the “properties relative to duocarmycin SA or 304” value is “indistinguishable”. Also, the “relative rate of DNA alkylation” value in data set [11] is recorded as 0.9. For the same compound, the “adenine N3 adduct quantitated” value in the data set on DNA [10] is 95-100%.
